Results on six compounds are retold here after ChEMBL document CHEMBL3763009, “Discovery of antiviral molecules for dengue: In silico search and biological evaluation” (Eur J Med Chem, 2016).

Calls of active or inactive are those of the source. The rule behind the calls is not given here.

Series [1] relates to dengue virus type 2. Nature of the series: Antiviral activity against Dengue virus 2 infected in human HepG2 cells assessed as reduction in NS1 level after 72 hrs by sandwich ELISA. Type of series: functional, organism-based. The note with it: HepG2, 72 h. A general note: ELISA stands for enzyme-linked immunosorbent assay.
Series [2] can be described thus: Selectivity index, ratio of CC50 for human HepG2 cells to IC50 for Dengue virus 2 infected in human HepG2 cells. Type of series: functional.
The subject of series [3] is dengue virus type 2. Nature of the series: (§1) Inhibition of Dengue virus 2 recombinant 6xHis-tagged NS2B/NS3 serine protease using Boc-Gly-Arg-Arg-AMC as substrate measured for 60 mins by fluorimetric analysis.
Series [4] in a line: as §1. On the set-up: species or system dengue virus type 2.
Series [5] relates to dengue virus type 2. The experiment in a line: Antiviral activity against Dengue virus 2 infected in human HepG2 cells assessed as reduction in NS1 level at 49.2 uM administered 1 hr postinfection measured after 72 hrs by sandwich ELISA relative to control. Type of series: functional. On the set-up: scale not given: the % may be the effect or the level left.
A short description of series [6]: Cytotoxicity against human HepG2 cells assessed as cell viability after 72 hrs by MTT assay. It is filed as cell-based. A general note: Tetrazolium dyes change colour on reduction, which living cells bring about.
Series [7] has as its system dengue virus type 2. Nature of the series: Antiviral activity against Dengue virus 2 infected in human HepG2 cells assessed as reduction in NS1 level at 85.7 uM administered 1 hr postinfection measured after 72 hrs by sandwich ELISA relative to control. It is filed as functional. Set-up: scale not given: the % may be the effect or the level left.
The subject of series [8] is dengue virus type 2. The experiment in a line: Antiviral activity against Dengue virus 2 infected in human HepG2 cells assessed as NS1 level at < maximum non-toxic concentration after 72 hrs by sandwich ELISA (reference value: 44.5 +/- 3.2 PbU). It is filed as functional.
Series [9] deals with dengue virus type 2. Nature of the series: Antiviral activity against Dengue virus 2 infected in human HepG2 cells assessed as reduction in NS1 level at 12.5 uM administered 1 hr postinfection measured after 72 hrs by sandwich ELISA relative to control. It is filed as functional, organism-based.
Series [10] relates to HepG2. Nature of the series: Cytotoxicity against human HepG2 cells assessed as reduction in cell viability up to 12.5 uM after 72 hrs by MTT assay. It is filed as cell-based. The settings on record: hepg2, 72 h.
Series [11] has as its system dengue virus type 2. Nature of the series: Antiviral activity against Dengue virus 2 infected in human HepG2 cells assessed as reduction in NS1 level at 100 uM administered 1 hr postinfection measured after 72 hrs by sandwich ELISA relative to control. It is filed as functional, organism-based.
For series [12], the system named is HepG2. The experiment in a line: Cytotoxicity against human HepG2 cells assessed as reduction in cell viability up to 100 uM after 72 hrs by MTT assay. Type of series: cell-based. The note with it: hepg2, 72 h.
The test system of series [13] is dengue virus type 2. The experiment in a line: Antiviral activity against Dengue virus 2 infected in human HepG2 cells assessed as reduction in NS1 level at 19.5 uM after 72 hrs by sandwich ELISA relative to control. Type of series: functional. Set-up: scale not given: the % may be the effect or the level left.
For series [14], the system named is dengue virus type 2. Nature of the series: Antiviral activity against Dengue virus 2 infected in human HepG2 cells assessed as reduction in NS1 level at 9.8 uM administered 1 hr postinfection measured after 72 hrs by sandwich ELISA relative to control. It is filed as functional. On the set-up: scale not given: the % may be the effect or the level left.
For series [15], the system named is dengue virus type 2. Nature of the series: Antiviral activity against Dengue virus 2 infected in human HepG2 cells assessed as reduction in NS1 level at 13.5 uM administered 1 hr postinfection measured after 72 hrs by sandwich ELISA relative to control. On the set-up: scale not given: the % may be the effect or the level left. It is filed as functional.

As a reminder, the IC50 is the concentration that inhibits the measured activity by half. Usually CC50 stands for the concentration at which the toxic effect on the cells reaches its halfway point. Regarding `COc1ccc(C(c2c(O)c3ccccc3oc2=O)c2c(O)c3ccccc3oc2=O)cc1COc1ccc(NC(C)=O)cc1`, the IC50 in series [1] is 61.5 µM; in series [4] it was 19.9 µM. Moreover, in series [2], the “Ratio CC50/IC50” value is 2.6. For the same compound, the inhibition result in [3] was “Dose-dependent effect”. For the same compound, the Activity in series [5] came out at 37%; in [7], 79.9%. Also, the CC50 at 72 h in [6] came out at 162 µM.

For the compound `NC(=O)c1ncn([C@@H]2O[C@H](CO)[C@@H](O)[C@H]2O)n1` [RIBAVIRIN], in series [8], the Activity is 8.3 PbU.

Regarding `O=c1oc2ccccc2c(O)c1C1c2ccccc2Oc2c1c(=O)oc1ccccc21` (centres undefined), the inhibition result in [3] is “Dose-dependent effect”. The IC50 in series [4] amounted to 18.9 µM. Further, in series [9], the outcome was inactive. For the same compound, in [10], the Activity entry is on record as “Non-toxic”.

Take `Cc1ccc2nc(-c3ccc(NC(=O)c4c(O)c5c(n(Cc6ccco6)c4=O)CCCC5)cc3)sc2c1`: the outcome in series [11] was inactive. For the same compound, the inhibition entry in [3] was “Dose-dependent effect”. Also, the IC50 in series [4] was determined as 608 µM. For the same compound, the Activity entry in [12] is reported as “Non-toxic”.

Take `CC1(C)CC(=O)C2=C(C1)c1c(ccc3ccccc13)NC2c1ccc(-c2ccc(O)c(C(=O)O)c2)o1` (centres undefined): the IC50 was 14.9 µM in [1] and 17.5 µM in series [4]. In addition, the Activity in [13] came to 69.8%; in series [14] it was 15.5%. Moreover, in series [2], the “Ratio CC50/IC50” value is listed as 3.9. For the same compound, the inhibition entry in [3] is “Dose-dependent effect”. For the same compound, the cytotoxic concentration (CC50) at 72 h in series [6] was 58.6 µM.

With `COc1ccc(C(c2c(O)c3ccccc3oc2=O)c2c(O)c3ccccc3oc2=O)cc1CSc1nc2ccccc2s1`, the IC50 in [1] was 11.8 µM; in series [4] it was 9.09 µM. Also, the “Ratio CC50/IC50” value in series [2] came out at 3.6. In [3], the inhibition entry is “Dose-dependent effect”. The CC50 at 72 h in [6] was 42.1 µM. Moreover, the Activity in series [15] amounted to 73.9%.
